Results reported in US11634381B2, “RUNX2 transcription factor inhibitors and uses thereof” (University of Maryland, Baltimore, priority 2015, dated 2023).

How the values were obtained:
[1] = tested on: non-malignant cells (MCF10A, IEC-6, GES-1, C2C12); experiment: Cell growth assay in non-malignant cells; format: cell-based, human, rat, murine; conditions: 0˜100 μM, 24˜72 hrs
Protocol: Cells wereplated on 96-well (30,000 cells/well) or 24-well plates (50,000 cells/well). After CADD522 (0˜100 μM) addition, cells were incubated for 24˜72 hrs. Cells were stained with crystal violet (0.5% in Methanol:Acetic Acid=3:1) and washed with PBS. Crystal violet was solubilized in DMSO and measured in a microplate reader at 592 nm.

breast cancer cells [2] = experiment: Caspase 3/7 assay; format: cell-based, human; conditions: 50 μM, within 72 hrs
Protocol: Cells were cultured in 96-well plates (30,000 cells/well). After compound 1 treatment for 24-72 hrs, cellular apoptosis was analyzed using the Caspase-Glo 3/7 Assay kit (Promega) according to the manufacturer's instructions.

breast cancer cells [3] = experiment: Cell cycle analysis by flow cytometry; format: cell-based, human; conditions: 50 μM
Protocol: Cells (1×10^6 cells/ml) were starved in serum-free medium for 24 hrs, and released in 10% serum-medium with or without compound 1 (50 μM) for 16-24 hrs for cell cycle transition. Cells were then fixed in 70% ethanol at 4° C. for 1 hr, resuspended in 1 ml PBS containing 20 μg/ml propidium iodide, 20 μg/ml RNase A, incubated for 30 min at room temperature, and analyzed with a Becton Dickinson LSR-II at the Flow Cytometry Core Laboratory at the University of Maryland. Ten thousand events per sampl were collected and analyzed using the Cell-Quest (BD Biosciences).

MCF7-tet-off cells = experiment: 96 Well BME Cell Invasion Assay; format: cell-based, human; conditions: MCF7-tet-off (+Doxy) and (-Doxy), 50 μM, 24 hrs
Protocol: MCF7-tet-off cells were grown in the media with (+Doxy) or without doxycycline (−Dox) for 72 hours. Cells were then treated with compound 1 (50 μM) for 24 hrs, and trypsinized and suspended in serum-free media. Cells were re-plated in the top chamber precoated with 0.1× BME (Cultrex), and growth medium supplemented with 10% FBS was used as a chemoattractant in the bottom chamber. compound 1 was added to both chambers and incubated for 16 hrs. Cellular invasion was analyzed according to the 96 Well BME Cell Invasion Assay protocol (Cultrex).

Lats1/2 = Lats1/2 phosphorylation (Hippo signaling); format: cell-based, human; conditions: compound 1, 24 hours
Protocol: In FIG. 22A HCC1428 luminal BC cells that express E-Cadherin were treated with recombinant soluble E-Cadherin (rsE-Cad) for 24 hr and total cell extracts were analyzed for phosphorylation of the Lats1/2 tumor suppressors. Phospho.Lats1/2 and total Lats1/2 levels declined with rsE-Cad treatment consistent with TAZ translocation to the nucleus, where it acts as an oncogene with RUNX2. […] MCF7 cells expressing RUNX2 (Tet.OFF) were treated with compound 1 drug for 24 hours and total cell extracts were analyzed for phosphp.Lats1/2, total Lats1/2, and RUNX2 expression.

Complex I = Complex I activity; format: cell-based, human; conditions: MDA-468 and MCF7 cells, 50 μM, 1-3 days
Protocol: In FIG. 26A MDA-231, MDA-468, MCF7, and BT-474 breast cancer cells were treated with compound 1 (50 μM) for 1-3 days. Complex I activity increased in MDA-468 and MCF7 cells. In FIG. 26B T47D-Vector control or T47D-RUNX2-clone #10 overexpressing cells; MCF7-Vector Control or RUNX2-clone #2 overexpressing cells were treated with 50 μM compound 1 for 1 day.

[4] = tested on: MDA-231, MDA-468, MCF7 and BT474 breast cancer cells; experiment: ROS production luminometer assay; format: cell-based, human; conditions: 0-100 μM, 6-18 hours
Protocol: In FIG. 27A MDA-231, MDA-468, MCF7 and BT474 breast cancer cells were treated with compound 1 (0-100 μM) for 6-18 hours and ROS production in response to H2O2 treatment (2 mM) was measured with luciferase-based luminometer assay. In FIG. 27B T47D-Vector control or T47D-RUNX2-clone #10 overexpressing cells; MCF7-Vector Control or RUNX2-clone #2 overexpressing cells were treated with 50 μM compound 1 for 6 hours.

[5] = Maximum tolerated dose (MTD) test; format: in vivo; conditions: up to 20 mg/kg, 2 weeks, athymic nude mice
Source text: Animal maintenance and experimental protocols are in accordance with the guidelines of the University of Maryland's Institutional Animal Care and Use Committee.

[6] = tested on: MCF7-tet-off-Luc (-Doxy) and 231-Luc cells; experiment: In vivo lung metastasis assay (BLI); design: species or system NSG mice; conditions: 10 mg/kg
Protocol: For in vivo lung metastasis assay, MCF7-tet-off-Luc cells were grown for 3 days in the absence of Doxycyclin (−Doxy) and injected into the tail vein of the 8 week-old female NSG mice (1×10^6 cells/200 μl of PBS). After inoculation, the mice were randomly assigned to vehicle control and treatment groups. Vehicle (10% DMSO/90% PBS) and compound 1 (10 mg/kg) were injected i.p. 2 hrs after inoculation. The retention of the cells in the lung was monitored by noninvasive bioluminescence imaging for 24 hrs. For luciferase detection, 150 mg/mL D-luciferin (Caliper Life Sciences) in PBS was injected i.p. before imaging. Photometric measurement of metastasis was done by living Image software (Xenogen). In separate groups of mice, 231-Luc cells (1×10^6/200 μl of PBS) were injected, and the metastasis burden in the lung was quantified for 3 weeks.

RUNX2 = RUNX2 (Homo sapiens, UniProt Q13950); experiment: D-ELISA DNA binding assay; design: endogenous in cells; conditions: read-out: IC50 in D-ELISA DNA binding assays (RUNX2 DNA binding)
Chain of RUNX2 (Q13950 whole entry): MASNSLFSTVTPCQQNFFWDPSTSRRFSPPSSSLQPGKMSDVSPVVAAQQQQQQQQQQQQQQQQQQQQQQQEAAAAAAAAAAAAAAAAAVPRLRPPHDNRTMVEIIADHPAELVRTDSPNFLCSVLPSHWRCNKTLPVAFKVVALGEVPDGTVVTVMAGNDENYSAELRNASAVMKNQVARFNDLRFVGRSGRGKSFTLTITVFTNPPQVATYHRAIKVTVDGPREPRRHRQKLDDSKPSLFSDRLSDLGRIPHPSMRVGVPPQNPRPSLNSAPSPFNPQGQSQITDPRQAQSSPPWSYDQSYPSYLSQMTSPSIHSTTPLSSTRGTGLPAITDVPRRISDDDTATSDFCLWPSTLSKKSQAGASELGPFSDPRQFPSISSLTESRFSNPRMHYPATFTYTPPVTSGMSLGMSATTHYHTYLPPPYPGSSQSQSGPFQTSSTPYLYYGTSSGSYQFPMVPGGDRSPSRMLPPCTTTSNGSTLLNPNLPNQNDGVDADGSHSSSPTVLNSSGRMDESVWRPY
Protocol: A microtiter plate-based D-ELISA was performed as described. Briefly, nuclear proteins were isolated from HBME-1 cells that express all three RUNX proteins and bound to double-stranded DNA oligonucleotides of human osteocalcin and MMP13 (forward primer: 5′-TTCTACCACAAACCACACTCGTTCTACCACAAACCACACTCGTTCTACCACAAACCACACTCG-Biotin-3′, SEQ ID NO: 4 and reverse primer: 5′-CGAGTGTGGTTTGTGGTAGAACGAGTGTGGTTTGTGGTAGAACGAGTGTGGTTTGTGGTAGAA-Biotin-3′, SEQ ID NO: 5). Vehicle (0.05% DMSO) or compound 1 at different concentrations were incubated with the proteins and DNA oligonucleotide mixture in Avidin-coated 96-well plates. DNA-bound RUNX proteins were captured with specific antibodies (Cell Signaling Technologies). Primary and secondary antibody dilution was 1:500 and 1:10,000, respectively.

Structure (SMILES): O=C(O)C1C2C=CC(C2)C1C(=O)Nc1ccc(Cl)c(Cl)c1 (stereo not shown) [compound 1, 3-(N-(3,4-dichlorophenyl)carbamoyl)-5-norbornene-2-carboxylic acid]
- sensitivity of non-malignant cells versus BC cell lines [1]: much lower
- caspase-3/7 activity compared to vehicle controls (breast cancer cells [2]): no change
- cell cycle distribution (breast cancer cells [3]): increased cell populations at the G1 phase with reduction at the S phase
- invasiveness (MCF7-tet-off cells): almost abrogated
- phosphorylation of the Lats1/2 tumor suppressors (Lats1/2): increase in phosphorylation
- Complex I activity (Complex I): increased
- mitochondrial ROS production [4]: increase in mitochondrial ROS production
- influence on body weight or general health [5]: no detectable influence
- body weight and general health ([6]; NSG mice): did not significantly decrease body weight
- colonization and outgrowth in the lung versus vehicle ([6]; 231-Luc cells, 3 weeks): significantly lower
- metastatic homing to the mouse lungs ([6]; MCF7-tet-off-Luc (-Doxy) cells): no influence
- lung retention of the cells ([6]; MCF7-tet-off-Luc (-Doxy) cells, 24 hrs): significantly reduced
- IC50 (RUNX2): 0.01 µM
